# Experimental data from patent publication US12012409B2, “Bicyclic heterocycles as FGFR inhibitors” (Incyte Corporation, priority 2020, dated 2024).
# pIC50: −log10 of the molar value.
# How the values were obtained:
# [1] = target: wild-type un-phosphorylated FGFR3 (Homo sapiens, UniProt P22607); assay: FGFR Enzymatic Assay (FRET peptide phosphorylation), FGFR3; type: biochemical; details: wild-type un-phosphorylated protein; pre-incubated for 4 hours; ATP near or below Km
# Description: (§1) The inhibitor potency of the exemplified compounds was determined in an enzyme discontinuous assay that measures peptide phosphorylation using FRET measurements to detect product formation. Inhibitors were serially diluted in DMSO and a volume of 0.2 μL was transferred to the wells of a 384-well plate. […] Appropriate controls (enzyme blank and enzyme with no inhibitor) were included on the plate. […] The ATP Km values were pre-determined in a separate series of experiments. […] The plate was allowed to equilibrate for ˜10 minutes at ambient temperature before scanning on a PheraStar plate reader (BMG Labtech) instrument.
# (§2) Either GraphPad prism or XLfit was used to analyze the data. The IC50 values were derived by fitting the data to a four parameter logistic equation producing a sigmoidal dose-response curve with a variable Hill coefficient. Prism equation: Y=Bottom+(Top−Bottom)/(1+10^((LogIC50−X)*Hill slope)); XLfit equation: Y=(A+((B−A)/(1+((X/C)^D)))) where X is the logarithm of inhibitor concentration and Y is the response.
# [2] = target: wild-type un-phosphorylated FGFR1 (Homo sapiens, UniProt P11362); assay: FGFR Enzymatic Assay (FRET peptide phosphorylation), FGFR1; type: biochemical; details: wild-type un-phosphorylated protein; pre-incubated for 4 hours; ATP near or below Km
# wild-type un-phosphorylated FGFR1, sequence (P11362 22-822): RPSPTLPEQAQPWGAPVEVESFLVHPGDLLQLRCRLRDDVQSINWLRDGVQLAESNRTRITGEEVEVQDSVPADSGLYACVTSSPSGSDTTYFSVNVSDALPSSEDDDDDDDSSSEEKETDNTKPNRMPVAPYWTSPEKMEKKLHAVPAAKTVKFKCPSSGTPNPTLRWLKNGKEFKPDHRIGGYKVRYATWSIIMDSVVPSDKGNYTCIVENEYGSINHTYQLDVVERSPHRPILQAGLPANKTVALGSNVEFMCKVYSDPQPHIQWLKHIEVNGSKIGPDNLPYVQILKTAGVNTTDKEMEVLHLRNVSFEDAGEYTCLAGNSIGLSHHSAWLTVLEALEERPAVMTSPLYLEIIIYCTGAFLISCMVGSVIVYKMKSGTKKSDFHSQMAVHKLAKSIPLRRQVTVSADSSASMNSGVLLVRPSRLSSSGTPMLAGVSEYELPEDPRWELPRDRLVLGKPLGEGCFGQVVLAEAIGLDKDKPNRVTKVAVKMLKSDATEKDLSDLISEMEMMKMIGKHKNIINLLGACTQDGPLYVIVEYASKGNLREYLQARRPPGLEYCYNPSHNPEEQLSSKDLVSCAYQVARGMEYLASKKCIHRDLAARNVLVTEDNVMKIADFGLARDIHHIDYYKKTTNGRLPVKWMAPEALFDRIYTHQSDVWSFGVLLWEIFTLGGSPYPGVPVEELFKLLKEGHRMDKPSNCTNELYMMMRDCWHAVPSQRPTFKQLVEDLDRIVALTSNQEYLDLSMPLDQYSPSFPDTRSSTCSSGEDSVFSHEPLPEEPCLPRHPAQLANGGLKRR
# Description: as §1, §2
# wild-type un-phosphorylated FGFR3, sequence (P22607 23-806): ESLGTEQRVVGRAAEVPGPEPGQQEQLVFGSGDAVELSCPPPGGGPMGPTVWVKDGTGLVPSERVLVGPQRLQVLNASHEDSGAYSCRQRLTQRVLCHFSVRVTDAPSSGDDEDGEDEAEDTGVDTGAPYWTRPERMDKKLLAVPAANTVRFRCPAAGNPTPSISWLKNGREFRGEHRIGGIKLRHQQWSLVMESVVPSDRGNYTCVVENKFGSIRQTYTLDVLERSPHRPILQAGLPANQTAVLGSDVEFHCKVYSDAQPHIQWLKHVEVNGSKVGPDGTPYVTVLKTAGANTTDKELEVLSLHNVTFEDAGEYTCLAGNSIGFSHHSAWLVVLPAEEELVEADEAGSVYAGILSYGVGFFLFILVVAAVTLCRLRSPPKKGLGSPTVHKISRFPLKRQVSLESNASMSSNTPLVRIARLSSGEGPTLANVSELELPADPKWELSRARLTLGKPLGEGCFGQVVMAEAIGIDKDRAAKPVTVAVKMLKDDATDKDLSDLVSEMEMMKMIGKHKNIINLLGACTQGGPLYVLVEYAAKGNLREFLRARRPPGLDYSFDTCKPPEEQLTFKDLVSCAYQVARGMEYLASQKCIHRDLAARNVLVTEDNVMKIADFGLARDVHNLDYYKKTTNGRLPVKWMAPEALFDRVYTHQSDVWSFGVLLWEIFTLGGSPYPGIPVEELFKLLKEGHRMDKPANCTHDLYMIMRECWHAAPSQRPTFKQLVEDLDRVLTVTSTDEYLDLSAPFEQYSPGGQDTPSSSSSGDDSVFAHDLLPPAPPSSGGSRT
compound,measurement,setting,value
"COc1nn2c(-c3cncc(C)c3)cnc2cc1-c1cnn(C)c1 [Example 3, 6-Methoxy-7-(1-methyl-1H-pyrazol-4-yl)-3-(5-methylpyridin-3-yl)imidazo[1,2-b]pyridazine]",pIC50,[1],6.40 to 7.00
same,pIC50,[2],≤ 6.40
"COc1nn2c(-c3ccc4ncccc4c3)cnc2cc1-c1cnn(C)c1 [Example 5, 6-(6-Methoxy-7-(1-methyl-1H-pyrazol-4-yl)imidazo[1,2-b]pyridazin-3-yl)quinoline]",pIC50,[1],6.40 to 7.00
same,pIC50,[2],6.40 to 7.00
"COc1nn2c(-c3cccc(N4CCOCC4)c3)cnc2cc1-c1cnn(C)c1 [Example 6, 4-(3-(6-Methoxy-7-(1-methyl-1H-pyrazol-4-yl)imidazo[1,2-b]pyridazin-3-yl)phenyl)morpholine]",pIC50,[1],6.40 to 7.00
same,pIC50,[2],6.40 to 7.00
"COc1nn2c(-c3cccc(CC#N)c3)cnc2cc1-c1cnn(C)c1 [Example 7, 2-(3-(6-Methoxy-7-(1-methyl-1H-pyrazol-4-yl)imidazo[1,2-b]pyridazin-3-yl)phenyl)acetonitrile]",pIC50,[1],7.00 to 8.00
same,pIC50,[2],7.00 to 8.00
"CNS(=O)(=O)c1cccc(-c2cnc3cc(-c4cnn(C)c4)c(OC)nn23)c1 [Example 8, 3-(6-Methoxy-7-(1-methyl-1H-pyrazol-4-yl)imidazo[1,2-b]pyridazin-3-yl)-N-methylbenzenesulfonamide]",pIC50,[1],> 8.00
same,pIC50,[2],> 8.00
"COc1nn2c(-c3cccc(C(C)(C)O)c3)cnc2cc1-c1cnn(C)c1 [Example 9, 2-(3-(6-Methoxy-7-(1-methyl-1H-pyrazol-4-yl)imidazo[1,2-b]pyridazin-3-yl)phenyl)propan-2-ol]",pIC50,[1],7.00 to 8.00
same,pIC50,[2],7.00 to 8.00
"COc1nn2c(-c3cccc(NC(C)=O)c3)cnc2cc1-c1cnn(C)c1 [Example 10, N-(3-(6-Methoxy-7-(1-methyl-1H-pyrazol-4-yl)imidazo[1,2-b]pyridazin-3-yl)phenyl)acetamide]",pIC50,[1],> 8.00
same,pIC50,[2],> 8.00
"CNC(=O)c1cc(-c2ccc(F)cc2F)cc(-c2cnc3cc(-c4cnn(C)c4)c(OC)nn23)c1 [Example 11, 2′,4′-Difluoro-5-(6-methoxy-7-(1-methyl-1H-pyrazol-4-yl)imidazo[1,2-b]pyridazin-3-yl)-N-methyl-[1,1′-biphenyl]-3-carboxamide]",pIC50,[1],> 8.00
same,pIC50,[2],7.00 to 8.00
"CNC(=O)c1ccc(OC)c(-c2cnc3cc(-c4cnn(C)c4)c(OC)nn23)c1 [Example 12, 4-Methoxy-3-(6-methoxy-7-(1-methyl-1H-pyrazol-4-yl)imidazo[1,2-b]pyridazin-3-yl)-N-methylbenzamide]",pIC50,[1],≤ 6.40
same,pIC50,[2],≤ 6.40
"CNC(=O)c1ccc(C#N)c(-c2cnc3cc(-c4cnn(C)c4)c(OC)nn23)c1 [Example 13, 4-Cyano-3-(6-methoxy-7-(1-methyl-1H-pyrazol-4-yl)imidazo[1,2-b]pyridazin-3-yl)-N-methylbenzamide]",pIC50,[1],≤ 6.40
same,pIC50,[2],≤ 6.40
"COc1nn2c(-c3cc(C(=O)NCC(F)(F)F)ccc3F)cnc2cc1-c1cnn(C)c1 [Example 14, 4-Fluoro-3-(6-methoxy-7-(1-methyl-1H-pyrazol-4-yl)imidazo[1,2-b]pyridazin-3-yl)-N-(2,2,2-trifluoroethyl)benzamide]",pIC50,[1],7.00 to 8.00
same,pIC50,[2],7.00 to 8.00
"CNC(=O)c1cncc(-c2cnc3cc(-c4cnn(C)c4)c(OC4COC4)nn23)c1 [Example 15, N-Methyl-5-(7-(1-methyl-1H-pyrazol-4-yl)-6-(oxetan-3-yloxy)imidazo[1,2-b]pyridazin-3-yl)nicotinamide]",pIC50,[1],> 8.00
same,pIC50,[2],7.00 to 8.00
"CNC(=O)c1cc(F)c(F)c(-c2cnc3cc(-c4cnn(C)c4)c(O[C@H]4CCN(C)C4)nn23)c1 [Example 16, (S)-3,4-Difluoro-N-methyl-5-(7-(1-methyl-1H-pyrazol-4-yl)-6-((1-methylpyrrolidin-3-yl)oxy)imidazo[1,2-b]pyridazin-3-yl)benzamide]",pIC50,[1],≤ 6.40
same,pIC50,[2],≤ 6.40
